Data: US8937072B2, “Substituted cyanoaniline compounds, preparation and use thereof” (Sinochem Corporation, priority 2011, dated 2015)
Where two headings read alike, the source gives them in different places.

Columns and labels:
cucumber gray mold = experiment: Activity in vitro (96-well, High Through Put): inhibition rate against cucumber gray mold; format: cell-based; settings: for inhibition at 0.3 µg/mL: 0.3 mg/L; for inhibition at 8.3 µg/mL: 8.3 mg/L; for inhibition at 25 µg/mL: dose 25 mg/L
Method in brief: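 Compound in acetone, methanol or DMF was combined with pathogen suspension under sterile conditions and held in a constant-temperature box. After 24 hours germination or growth was scored by eye against an untreated control to give the inhibition rate.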

corn rust = experiment: Protectant activity in vivo (whole plant) against corn rust; settings: Zea mays, 168 h; for pest or weed control at 6.25 µg/mL: 6.25 mg/L; for pest or weed control at 25 µg/mL: 25 mg/L; for pest or weed control at 100 µg/mL: 100 mg/L
Method in brief: (§1)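 Compound stock in organic solvent (≤5% v/v) diluted in water with 0.1% Tween-80 and sprayed onto whole host plants. Fungal inoculation 24 h later; humidity chamber then greenhouse as the pathogen requires. Activity rated visually, usually after 7 days.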

rice blast = experiment: microbe, parasite or virus in culture; format: cell-based; settings: Pyricularia oryzae; for inhibition at 0.03 µg/mL: read-out: the inhibition rate against rice blast (%) 0.03 mg/L; for inhibition at 0.1 µg/mL: read-out: the inhibition rate against rice blast (%) 0.1 mg/L
cucumber downy mildew = experiment: Protectant activity in vivo (whole plant) against cucumber downy mildew; settings: Cucumis sativus, 168 h; for pest or weed control at 12.5 µg/mL: 12.5 mg/L; for pest or weed control at 100 µg/mL: 100 mg/L; for pest or weed control at 400 µg/mL: dose 400 mg/L
Method in brief: as §1

wheat powdery mildew = experiment: Protectant activity in vivo (whole plant) against wheat powdery mildew; settings: Triticum aestivum, 168 h; dose 400 mg/L
Description: The method is as followed: The whole plant is used in this test. The compound is dissolved in a proper solvent to get mother solution. The proper solvent is selected from acetone, methanol, DMF and so on according to their dissolving capability to the sample. The volume rate of solvent and testing solution (v/v) is equal to or less than 5%. The mother solution is diluted with water containing 0.1% tween-80 to get the testing solution whose concentration is designed. The testing solution is sprayed to the host plant by a special plant sprayer. The plant is inoculated with fungus after 24 hours. According to the infecting characteristic of fungus, the plant is stored in a humidity chamber and then transferred into greenhouse after infection is finished. And the other plants are placed in greenhouse directly. The activity of compound is obtained by eyeballing after 7 days in common.

[1] = 0.9 mg/L, read-out: the inhibition rate against cucumber gray mold (%)
[2] = 2.8 mg/L, read-out: the inhibition rate against cucumber gray mold (%)
[3] = read-out: the inhibition rate against cucumber gray mold (%)
[4] = 400 mg/L, read-out: the protectant activity (%) against corn rust
[5] = dose 400 mg/L, read-out: protectant activity against corn rust in vivo
[6] = read-out: inhibition rate against rice blast
[7] = read-out: the inhibition rate against rice blast (%) 0.3 mg/L
[8] = 25 mg/L, read-out: the protectant activity (%) against cucumber downy mildew
[9] = 50 mg/L, read-out: the protectant activity (%) against cucumber downy mildew
[10] = read-out: the protectant activity (%) against cucumber downy mildew
[11] = dose 25 mg/L, read-out: protectant activity against cucumber downy mildew in vivo

N#Cc1c(Cl)c(Cl)c(Nc2ccc(Cl)cc2)c(C#N)c1Cl [KC2]
0%: inhibition at 0.3 µg/mL (cucumber gray mold) | inhibition at 0.9 µg/mL (cucumber gray mold; [1]) | inhibition at 2.8 µg/mL (cucumber gray mold; [2]) | inhibition at 8.3 µg/mL (cucumber gray mold; [3]) | inhibition at 25 µg/mL (cucumber gray mold; in vitro) | pest or weed control at 6.25 µg/mL (corn rust) | pest or weed control at 25 µg/mL (corn rust) | pest or weed control at 100 µg/mL (corn rust) | pest or weed control at 400 µg/mL (corn rust; [4]) | pest or weed control at 400 µg/mL (corn rust; [5]) | inhibition at 25 µg/mL (rice blast; [6]) | inhibition at 0.03 µg/mL (rice blast) | inhibition at 0.1 µg/mL (rice blast) | inhibition at 0.3 µg/mL (rice blast; [7]) | pest or weed control at 12.5 µg/mL (cucumber downy mildew) | pest or weed control at 25 µg/mL (cucumber downy mildew; [8]) | pest or weed control at 50 µg/mL (cucumber downy mildew; [9]) | pest or weed control at 100 µg/mL (cucumber downy mildew; [10]) | pest or weed control at 400 µg/mL (cucumber downy mildew) | pest or weed control at 400 µg/mL (wheat powdery mildew)

Cc1ccc(Nc2c(Cl)c(Cl)c(C#N)c(Cl)c2C#N)cc1 [KC3]
0%: inhibition at 0.3 µg/mL (cucumber gray mold) | inhibition at 0.9 µg/mL (cucumber gray mold; [1]) | inhibition at 2.8 µg/mL (cucumber gray mold; [2]) | inhibition at 8.3 µg/mL (cucumber gray mold; [3]) | inhibition at 25 µg/mL (cucumber gray mold; in vitro) | pest or weed control at 6.25 µg/mL (corn rust) | pest or weed control at 25 µg/mL (corn rust) | pest or weed control at 100 µg/mL (corn rust) | pest or weed control at 400 µg/mL (corn rust; [4]) | pest or weed control at 400 µg/mL (corn rust; [5]) | inhibition at 25 µg/mL (rice blast; [6]) | inhibition at 0.03 µg/mL (rice blast) | inhibition at 0.1 µg/mL (rice blast) | inhibition at 0.3 µg/mL (rice blast; [7]) | pest or weed control at 12.5 µg/mL (cucumber downy mildew) | pest or weed control at 25 µg/mL (cucumber downy mildew; [8]) | pest or weed control at 50 µg/mL (cucumber downy mildew; [9]) | pest or weed control at 100 µg/mL (cucumber downy mildew; [10]) | pest or weed control at 400 µg/mL (cucumber downy mildew) | pest or weed control at 400 µg/mL (wheat powdery mildew)

COc1ccc(Nc2c(Cl)c(Cl)c(C#N)c(Cl)c2C#N)cc1 [KC4]
100%: inhibition at 8.3 µg/mL (cucumber gray mold; [3])
0%: inhibition at 0.3 µg/mL (cucumber gray mold) | inhibition at 0.9 µg/mL (cucumber gray mold; [1]) | inhibition at 0.9 µg/mL (cucumber gray mold; in vitro, dose 0.9 mg/L, read-out: inhibition rate against cucumber gray mold) | pest or weed control at 6.25 µg/mL (corn rust) | pest or weed control at 25 µg/mL (corn rust) | pest or weed control at 100 µg/mL (corn rust) | pest or weed control at 400 µg/mL (corn rust; [4]) | pest or weed control at 400 µg/mL (corn rust; [5]) | inhibition at 0.9 µg/mL (rice blast; [6]) | inhibition at 0.03 µg/mL (rice blast) | inhibition at 0.1 µg/mL (rice blast) | inhibition at 0.3 µg/mL (rice blast; [7]) | pest or weed control at 25 µg/mL (cucumber downy mildew; [11]) | pest or weed control at 400 µg/mL (wheat powdery mildew)
50%: inhibition at 2.8 µg/mL (cucumber gray mold; [2]) | inhibition at 2.8 µg/mL (cucumber gray mold; in vitro, dose 2.8 mg/L, read-out: inhibition rate against cucumber gray mold)

N#Cc1c(Cl)c(Cl)c(Nc2ccc([N+](=O)[O-])cc2)c(C#N)c1Cl [KC5]
20%: pest or weed control at 50 µg/mL (cucumber downy mildew; dose 50 mg/L, read-out: protectant activity against cucumber downy mildew in vivo)
0%: inhibition at 0.3 µg/mL (cucumber gray mold) | inhibition at 0.9 µg/mL (cucumber gray mold; [1]) | inhibition at 25 µg/mL (cucumber gray mold; in vitro) | pest or weed control at 6.25 µg/mL (corn rust) | pest or weed control at 25 µg/mL (corn rust) | pest or weed control at 400 µg/mL (corn rust; [5]) | inhibition at 0.03 µg/mL (rice blast) | inhibition at 0.1 µg/mL (rice blast) | inhibition at 0.3 µg/mL (rice blast; [7]) | pest or weed control at 12.5 µg/mL (cucumber downy mildew) | pest or weed control at 25 µg/mL (cucumber downy mildew; [8]) | pest or weed control at 25 µg/mL (cucumber downy mildew; [11]) | pest or weed control at 400 µg/mL (wheat powdery mildew)

Cc1cc(Nc2c(Cl)c(Cl)c(C#N)c(Cl)c2C#N)c(C)cc1Cl [KC6]
0%: inhibition at 0.3 µg/mL (cucumber gray mold) | inhibition at 0.9 µg/mL (cucumber gray mold; [1]) | inhibition at 25 µg/mL (cucumber gray mold; in vitro) | pest or weed control at 6.25 µg/mL (corn rust) | pest or weed control at 25 µg/mL (corn rust) | pest or weed control at 100 µg/mL (corn rust) | pest or weed control at 400 µg/mL (corn rust; [4]) | pest or weed control at 400 µg/mL (corn rust; [5]) | inhibition at 0.3 µg/mL (rice blast; [6]) | inhibition at 0.03 µg/mL (rice blast) | inhibition at 0.1 µg/mL (rice blast) | inhibition at 0.3 µg/mL (rice blast; [7]) | pest or weed control at 400 µg/mL (wheat powdery mildew)

N#Cc1ccc(Nc2c(Cl)c(F)c(C#N)c(F)c2C#N)cc1 [KC21]
70%: pest or weed control at 100 µg/mL (cucumber downy mildew; [10])
0%: inhibition at 0.3 µg/mL (cucumber gray mold) | inhibition at 0.9 µg/mL (cucumber gray mold; [1]) | inhibition at 2.8 µg/mL (cucumber gray mold; [2]) | inhibition at 8.3 µg/mL (cucumber gray mold; [3]) | inhibition at 25 µg/mL (cucumber gray mold; in vitro) | inhibition at 25 µg/mL (rice blast; [6]) | inhibition at 0.03 µg/mL (rice blast) | inhibition at 0.1 µg/mL (rice blast) | inhibition at 0.3 µg/mL (rice blast; [7]) | pest or weed control at 400 µg/mL (wheat powdery mildew)
80%: pest or weed control at 400 µg/mL (corn rust; [4])
